Laboratory results from the supplement of paper PMC12592484.

Columns and labels:
Test in all cases: drug sensitivity score (DSS2, normalised partial AUC of dose-response, 72 h CellTiter-Glo viability) (DSS (dimensionless)); higher = more sensitive (stronger growth inhibition / cytotoxicity); extreme values may be limits of the assay
CAF#5 = test system: CAF#5 (primary prostate cancer-associated fibroblasts of myCAF-like type)
In short: (§1)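 Low-passage primary prostate cancer-associated fibroblasts, PF179T, WPMY-1, LNCaP and 22Rv1 cells were seeded into 384-well plates carrying pre-dispensed compounds at five doses covering a 10,000-fold range. After 72 h, viability was read by CellTiter-Glo 2.0 luminescence. Responses were scaled to vehicle and positive-control wells. The drug sensitivity score (DSS2) is a partial area under the fitted logistic dose–response curve divided by the log of its upper asymptote, computed in BREEZE; higher means more sensitive.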

CAF#7 = test system: CAF#7 (primary prostate cancer-associated fibroblasts of myCAF-like type)
In short: as §1

CAF#4 = test system: CAF#4 (primary prostate cancer-associated fibroblasts of iCAF-like type)
In short: as §1

CAF#2 = test system: CAF#2 (primary prostate cancer-associated fibroblasts of iCAF-like type)
In short: as §1

CAF#3 = test system: CAF#3 (primary prostate cancer-associated fibroblasts of myCAF-like type)
In short: as §1

PF179T = test system: PF179T
In short: as §1

WPMY-1 = test system: WPMY-1
In short: as §1

LNCAP = test system: LNCAP
In short: as §1

CAF#1 = test system: CAF#1 (primary prostate cancer-associated fibroblasts of myCAF-like type)
In short: as §1

22Rv1 = test system: 22Rv1
In short: as §1

CAF#6 = test system: CAF#6 (primary prostate cancer-associated fibroblasts of iCAF-like type)
In short: as §1

| Structure (SMILES) | drug sensitivity score (CAF#5) | drug sensitivity score (CAF#7) | drug sensitivity score (CAF#4) | drug sensitivity score (CAF#2) | drug sensitivity score (CAF#3) | drug sensitivity score (PF179T) | drug sensitivity score (WPMY-1) | drug sensitivity score (LNCAP) | drug sensitivity score (CAF#1) | drug sensitivity score (22Rv1) | drug sensitivity score (CAF#6) |
| --- | --- | --- | --- | --- | --- | --- | --- | --- | --- | --- | --- |
| CC1(C)CCC(CN2CCN(c3ccc(C(=O)NS(=O)(=O)c4ccc(NCC5CCOCC5)c([N+](=O)[O-])c4)c(Oc4cnc5[nH]ccc5c4)c3)CC2)=C(c2ccc(Cl)cc2)C1 [Venetoclax] (tested concentration range 0.1-1000 nM) | 0 | 0 | 0 | 0 | 0 | 0 | 0 | 0 | 0 | 0 | 0 |
| CCCCOc1nc(N)c2c(n1)N(Cc1cccc(CN3CCCC3)c1)CC(=O)N2 [Vesatolimod] (tested concentration range 1-10000 nM) | 0 | 0 | 0 | 0 | 0 | 0 | 0 | 0 | 0 | 0 | 0 |
| CC[C@]1(O)C[C@@H]2CN(CCc3c([nH]c4ccccc34)[C@@](C(=O)OC)(c3cc4c(cc3OC)N(C)[C@H]3[C@@](O)(C(=O)OC)[C@H](OC(C)=O)[C@]5(CC)C=CCN6CC[C@]43[C@@H]65)C2)C1 [Vinblastine] (tested concentration range 0.1-1000 nM) | 5.2 | 7.5 | 3.6 | 5.6 | 2.8 | 5.9 | 11.9 | 24.7 | 4.1 | 7.7 | 5.1 |
| CC[C@]1(O)C[C@H]2CN(CCc3c([nH]c4ccccc34)[C@@](C(=O)OC)(c3cc4c(cc3OC)N(C=O)[C@H]3[C@@](O)(C(=O)OC)[C@H](OC(C)=O)[C@]5(CC)C=CCN6CC[C@]43[C@@H]65)C2)C1 [Vincristine] (tested concentration range 0.1-1000 nM) | 4.3 | 11.5 | 2 | 5.1 | 4.7 | 4.5 | 12.1 | 26 | 4.4 | 12.3 | 5.6 |
| CC[C@]12C=CCN3CC[C@@]4(c5cc([C@@]6(C(=O)OC)C[C@@H]7C[C@@H](C(C)(F)F)CN(Cc8c6[nH]c6ccccc86)C7)c(OC)cc5N(C)[C@H]4[C@@](O)(C(=O)OC)[C@@H]1OC(C)=O)[C@@H]32 [Vinflunine] (tested concentration range 0.1-1000 nM) | 1.1 | 4.4 | 0.1 | 0.9 | 2 | 3.8 | 5.5 | 4.3 | 0.9 | 4.8 | 2.4 |
| CCC1=C[C@@H]2CN(C1)Cc1c([nH]c3ccccc13)[C@@](C(=O)OC)(c1cc3c(cc1OC)N(C)[C@H]1[C@@](O)(C(=O)OC)[C@H](OC(C)=O)[C@]4(CC)C=CCN5CC[C@]31[C@@H]54)C2 [Vinorelbine] (tested concentration range 1-10000 nM) | 18.1 | 26 | 12.6 | 20.1 | 15.3 | 19.7 | 36.9 | 42 | 17.3 | 31.3 | 19.6 |
| CS(=O)(=O)c1ccc(C(=O)Nc2ccc(Cl)c(-c3ccccn3)c2)c(Cl)c1 [Vismodegib] (tested concentration range 1-10000 nM) | 0 | 0 | 0 | 0 | 1.5 | 0 | 0 | 0.2 | 0 | 0 | 0 |
| CNC(=O)c1cccc(-c2ccc3c(N4CCOC[C@@H]4C)nc(N4CCOC[C@@H]4C)nc3n2)c1 [Vistusertib] (tested concentration range 1-10000 nM) | 19.6 | 14.4 | 17.9 | 15.8 | 14.8 | 16.2 | 13.7 | 19.4 | 17.7 | 19.9 | 14 |
| CC[C@@H]1C(=O)N(C)c2cnc(Nc3ccc(C(=O)N[C@H]4CC[C@H](N5CCN(CC6CC6)CC5)CC4)cc3OC)nc2N1C(C)C [Volasertib] (tested concentration range 0.1-1000 nM) | 1.7 | 2.9 | 0 | 5.1 | 4.2 | 5.9 | 11.4 | 19.3 | 0.4 | 14.9 | 1.9 |
| O=C(CCCCCCC(=O)Nc1ccccc1)NO [Vorinostat] (tested concentration range 1-10000 nM) | 4.1 | 3.1 | 4.9 | 6.5 | 6.3 | 3.4 | 9.7 | 10 | 4 | 9.7 | 4.2 |
| Oc1nc(-c2ccc(C(F)(F)F)cc2)nc2c1CSCC2 [XAV-939] (tested concentration range 1-10000 nM) | 4.1 | 4.3 | 2.6 | 5.4 | 2.5 | 2.6 | 0 | 2.1 | 2.6 | 0 | 4 |
| Cc1sc2c(c1C)C(c1ccc(Cl)cc1)=N[C@@H](CC(=O)NCCCCNC(=O)COc1cccc3c1C(=O)N(C1CCC(=O)NC1=O)C3=O)c1nnc(C)n1-2 (some centres not stated) [dBET1] (tested concentration range 1-10000 nM) | 8.2 | 14.2 | 6.3 | 2.7 | 12 | 0.2 | 6 | 9.1 | 4.5 | 12 | 9.1 |
